The record followed here is patent US7342122B2, “Bisphosphonate complexes” (priority 2003, dated 2008).

Experiment [1] can be described thus: In vitro assay, adsorption of Pt complexes to hydroxyapatite. Format: binding. Here is the method:
Each of a 5, 10, 15, 25, 35, and 100 mg sample of hydroxyapatite (Bio-Rad Macro-Prep Ceramic Hydroxyapatite, type I, 40 μm) was added to 2 ml of HEPES buffer at pD=7.8 and the resulting mixture was shaken for about 24 h at 37° C. Then, 100 μl of each complexes dissolved in HEPES buffer at pD=7.8 was added and the mixtures were shaken for 1.5 h at 37° C. All suspensions were filtered, and these solutions were measured by ^31P NMR (Varian VXR-300S) and Atomic Absorption Spectrometry (Hitachi Z-5710 AAS) of platinum or, for carboplatin, by ^1H NMR. Percentage adsorption to hydroxyapatite was calculated as follows. From NMR: Binding percentage/%=[(A−B)/A]×100 From AAS: Binding percentage/%=[(C−D)/C]×100 • A=the integration intensity of Pt(II) complex • B=the integration intensity of Pt(II) complex after reacted with hydroxyapatite • C=the concentration of Pt(II) complex • D=the concentration of Pt(II) complex after reacted with hydroxyapatite

The test system of a further experiment is KB cells. As to the kind of experiment: In vitro assay, cell growth inhibition (KB cells). It counts as cell-based. Particulars: 72 hours. As to the method:
KB cells were purchased from Human Science Research Resource Bank (Osaka, Japan). The cells were cultured in Earle's MEM (GIBCO BRL) containing 10% FBS (Bio Whittaker) at 37° C. under 5% CO2. After 24 hours the test compounds were added to the cells at the indicated concentrations. 72 hours later the cells were stained with tripan blue and counted manually. IC50 is calculated as the concentration (aqueous solution) of complex required to inhibit growth of cells by 50%.

Entries after “also recorded” stand apart in the source; their conditions may differ.

With `O=P1(O)CP(=O)(O)[O][Pt]2([NH][C@@H]3CCCC[C@H]3[NH]2)[O]1` (stereo partly shown) [Example 2, Pt(dach)(MDP)], the “adsorption percentage to hydroxyapatite” value in experiment [1] (100 mg of hydroxyapatite, HEPES buffer pD=7.8, 1.5 h, 37° C.) is reported as 79.6%. Further, in experiment [1] (FIGS. 1 and 2, 31P NMR, 1H NMR, AAS), the “adsorption to hydroxyapatite, comparison in words” value is on record as “adsorbed slightly more than cis-Pt(NH3)2(MDP); also recorded: adsorbed quite significantly more than carboplatin”.
Regarding cis-Pt(NH3)2Cl2, the “KB cells remaining/growth in percent (Table 2, untitled)” value amounted to 17.0% with KB cells (1 μg/ml); 13.4% in the experiment with KB cells (3 μg/mL); 3.0% in the experiment on KB cells (10 μg/mL); 2.2% in the experiment on KB cells (30 μg/mL); 1.6% in the experiment with KB cells (100 μg/mL). Moreover, the “KB cells remaining/growth in percent (Table 1, untitled)” value in the experiment on KB cells (5 μM) is reported as 28.20%; with KB cells (15 μM), 13.80%; in the experiment with KB cells (50 μM), 6.78%; in the experiment with KB cells (150 μM) it was 4.34%; with KB cells (500 μM), 3.52%. Half-maximal inhibition in the experiment on KB cells (concentration to inhibit growth of cells by 50%) (IC50) required 2750 nM.
